Converted amounts (≈) assume the structure as drawn.
Key:
[1] = system: Red root pigweed (Amaranthus); experiment: Preliminary herbicide seed germination test (pre-emergent), red root pigweed; format: in vivo, Amaranthus retroflexus; parameters: key: 5: no seedling emerged; 4: few seedlings emerged and/or very severe stunting; 3: moderate reduction in stand and/or moderate stunting.; 2: very slight reduction in stand and/or slight stunting; 1: no injury, seedlings appear no different with respect to stand or growth than untreated controls; conditions: ten to twelve days after application
Procedure: (§1) Suspensions of the test compounds were prepared by dissolving one gram of compound in 50 milliliters of acetone in which had been dissolved 0.1 gram (10 percent of the weight of compound) of an alkylphenoxyethanol sufactant, as an emulsifying or dispersing agent. The resulting solution was mixed into 160 milliliters of water to give roughly 200 milliliters of a suspension containing the compound in finely divided form. The thus prepared stock suspension contained 0.5 percent by weight of compound. The test concentrations employed in the tests described below were obtained by diluting the stock suspension with water. The test procedures were as follows:
The following seeds were used in this test:
Red root pigweed--Amaranthus retroflexus
Two […] mixtures were prepared as follows:
Each of the above mixtures was rolled separately in 5 gallon containers for approximately one-half hour on ball mill to insure uniform mixing of seeds and soil. For each compound four 3-inch pots were filled with soil to within 11/2 inches of top of pots. To two of these pots were added 70 cc. of Mixture I. To the remaining 2 pots were added 70 cc. of Mixture II. The seed-soil mixture was tamped firmly, and the pots were removed to the greenhouse and watered lightly. About 2 hours after planting, 25 milliliters of the test formulation were added to one pot containing Mixture I and one pot containing Mixture II. An equal volume of a water solution containing acetone and an emulsifier in the same concentration as the herbicidal mixture but without the candidate herbicide was also added to each of the soil-seed mixtures. These pots are used as check or control units. The test compounds were formulated by diluting the stock suspension with water to obtain the desired concentration of the compound in parts per million of the final formulation. Each compound was tested at the same concentration. […] Ratings were made according to the following designations: […]

Bean = experiment: Post-emergent herbicidal test, bean; format: in vivo; parameters: key: 1: no perceptible injury; 2: intermediate degrees of injury; 3: intermediate degrees of injury; 4: intermediate degrees of injury; 5: the plant was dead; conditions: 2500 parts per million, after ten days; for Post-emergent Herbicidal, Bean: Table II; for Post Emergent Herbicidal, Bean: Table III
Procedure: as §1
Experiments were also conducted to determine the phytotoxicity of representative compositions with respect to healthy fresh plants. Solutions of the compounds were prepared as described above to provide a concentration of 2500 parts per million of the test compound. The test plants were sprayed in accordance with the procedure described above for the Mite Foliage Spray Test so as to deliver approximately 100 milliliters of test solutions to the leaves of each plant tested. The sprayed plants and controls were set aside for approximately one hour to allow the solutions to dry and were then placed in the greenhouse. After ten days the plants were visually inspected to determine the extent of foliage injury. A rating of 1 indicates no perceptible injury; 5 indicates the plant was dead and ratings of 2, 3 and 4 indicate intermediate degrees of injury based upon the number and extent to which leaves were injured.

[2] = system: egg of the two-spotted mite; experiment: Mite Ovicide Test (eggs); format: in vivo, Tetranychus urticae (Koch); parameters: key to Miticidal, Egg: A: Excellent Control; B: Partial Control; No Control; conditions: for Miticidal, Egg: Table II, unhatched eggs after four days; for LC50: Tetranychus urticae, Table III, ppm required for a 50 percent kill of eggs, read-out: Miticidal LD50, Egg
Procedure: Suspensions of the test compounds were prepared by dissolving one gram of compound in 50 milliliters of acetone in which had been dissolved 0.1 gram (10 percent of the weight of compound) of an alkylphenoxyethanol sufactant, as an emulsifying or dispersing agent. The resulting solution was mixed into 160 milliliters of water to give roughly 200 milliliters of a suspension containing the compound in finely divided form. The thus prepared stock suspension contained 0.5 percent by weight of compound. The test concentrations employed in the tests described below were obtained by diluting the stock suspension with water. The test procedures were as follows: The test organism was the egg of the two-spotted mite (Tetranychus urticae (Koch)), as obtained from adults reared on […] bean plants under controlled conditions of 80±5° F. and 50±5 percent relative humidity. Heavily infested leaves from a stock culture were placed on the primary leaves of two bean plants six to eight inches in height growing in a two-and-a-half inch clay pot. Females were allowed to oviposit for a period of 48 hours and the leaves of the infested plants were dipped in a solution containing 800 parts of tetraethyl pyrophosphate per million parts of water in order to destroy the reproductory forms and thus prevent further egg laying. […] The plants were allowed to dry thoroughly. The test compounds were formulated by diluting the stock suspension with water to give a suspension containing varying amounts of test compound per million parts of final formulation. The potted plants (one pot per compound) were placed on a revolving turntable and sprayed with 100-110 milliliters of test compound formulation by use of a DeVilbis spray gun set at 40 spig. air pressure. This application which lasted 30 seconds, was sufficient to wet the plants to run-off. As a control, 100-110 milliliters of a water solution containing acetone and emulsifier in the same concentrations as the test compound formulation, but containing no test compound, were also sprayed on plants infested with eggs. The sprayed plants were held at 80±5° F. and 50±5 percent relative humidity for four days, after which a microscopic examination was made of unhatched (dead) and hatched (living) eggs. In these tests the pesticidal activity of the compounds against mites and mite eggs was rated as follows: Tests were conducted in accordance with the procedures given at pages 17 to 21 supra. The results are expressed in the same manner as used in Table II, except with respect to miticidal activity. For mite adult and mite egg comparison purposes, results are given in parts per million (ppm) required for a 50 percent kill of mites or eggs, respectively.

Row | SMILES | Pre-emergent Herbicidal, Amaranthus ([1]; Table II) | Post-emergent Herbicidal, Bean (Bean) | Miticidal, Egg [2] | Pre-emergent Herbicidal, Amaranthus ([1]; Table III) | Post Emergent Herbicidal, Bean (Bean) | LC50 [2] [µg/mL]
1 | Cc1ccc(C2=C(OC(=O)c3ccccc3)C3CCCCC3C2=O)c(C)c1 (stereo not drawn) [Compound 27, 3-benzoyloxy-2-(2',4'-dimethylphenyl)-4,5,6,7,8,9-hexahydro-2-indenone] | 4 | 1 | A |  |  | 
2 | CCCCC(CC)C(=O)OC1=C(c2ccccc2C)C(=O)C2CCCCC12 (stereo not drawn) [drawing 22] |  |  |  | 2 | 1 | 5 (≈ 13.6 µM)
3 | CCCCCCCCCCCCCCCC(=O)OC1=C(c2ccccc2C)C(=O)c2ccccc21 [reference compound] |  |  |  | 1 | 1 | 60 (≈ 126 µM)
4 | CCCCC(CC)C(=O)OC1=C(c2cc(C)ccc2C)C(=O)C2CCCCC12 (stereo not drawn) [Compound 30, 3-(2-ethylhexanoyloxy)-2-(2',5'-dimethylphenyl)-4,5,6,7,8,9-hexahydro-2-indenone] | 1 | 1 | A |  |  | 
5 | CC(=O)OC1=C(c2ccc(C)cc2C)C(=O)C2CCCCC12 (stereo not drawn) [Compound 25] | 3 | 1 | A |  |  | 
6 | CCCCC(CC)C(=O)OC1=C(c2ccccc2Cl)C(=O)CC1 (stereo not drawn) [Compound 1] | 5 | 3 | A |  |  | 
7 | CCCCCCCCCCCCCCCC(=O)OC1=C(c2cc(C)ccc2C)C(=O)CC1 [Compound 14] | 1 | 2 | A |  |  | 
8 | CCCCC(CC)C(=O)OC1=C(c2ccc(Cl)cc2Cl)C(=O)CC1 (stereo not drawn) [Compound 5] | 1 | 3 | A |  |  | 
9 | CCCCC(CC)C(=O)OC1=C(c2ccc(C)cc2C)C(=O)CC1 (stereo not drawn) [Compound 9, 3-(2-ethylhexanoyloxy)-2-(2', 4'-dimethylphenyl)-2-cyclopentenone] | 2 | 2 | A |  |  | 
10 | CC(=O)OC1=C(c2cc(C)ccc2C)C(=O)C(C)C1 (stereo not drawn) [Compound 15] | 3 | 2 | B |  |  | 
11 | CCCCC(CC)C(=O)OC1=C(c2ccccc2C)C(=O)CC1 (stereo not drawn) [drawing 21] |  |  |  | 3 | 2 | 125 (≈ 398 µM)
12 | CCCCCCCCCC(=O)OC1=C(c2ccccc2C)C(=O)C2CCCCC12 (stereo not drawn) [Compound 23] | 3 | 2 | A |  |  | 
13 | Cc1ccccc1C1=C(OC(=O)C(C)(C)C)C2CCCCC2C1=O (stereo not drawn) [drawing 24] |  |  |  | 2 | 2 | 16 (≈ 49 µM)
14 | Cc1ccccc1C1=C(OC(=O)C(C)(C)C)C2CCCCC2C1=O (stereo not drawn) [Compound 22] | 2 | 2 | A |  |  | 
15 | CCCCCCCCCCCCCCCC(=O)OC1=C(c2cc(C)ccc2C)C(=O)C(C)C1 (stereo not drawn) [Compound 18] | 1 | 2 | A |  |  | 
16 | CC(=O)OC1=C(c2cc(C)ccc2C)C(=O)CC1 [Compound 11] | 3 | 2 | C |  |  | 
17 | CCCCC(CC)C(=O)OC1=C(c2cc(C)ccc2C)C(=O)CC1 (stereo not drawn) [Compound 13] | 1 | 2 | A |  |  | 
18 | CCCCC(CC)C(=O)OC1=C(c2ccccc2C)C(=O)C2CCCCC12 (stereo not drawn) [Compound 21, 3-(2-Ethylhexanoyloxy)-2-(2'-methylphenyl)-4,5,6,7,8,9-hexahydro-2-indenone] | 2 | 1 | A |  |  | 
19 | CCCCCCCCCC(=O)OC1=C(c2cc(C)ccc2C)C(=O)c2ccccc21 [reference compound] |  |  |  | 1 | 1 | 500 (≈ 1240 µM)
